The record followed here is ChEMBL document CHEMBL1131940 (Bioorg Med Chem Lett, 1999).

Each structure is given as a SMILES string.

The experiment has as its target Estrogen receptor (Homo sapiens, UniProt Q92731+P03372). The conditions noted are these: mcf-7.
Description: In vitro inhibition of estrogen-stimulated MCF-7 cell proliferation
With `O=C(c1ccc(S(=O)(=O)CCN2CCCCC2)cc1)c1c(-c2ccc(O)cc2)sc2cc(O)ccc12`, the IC50 worked out at 30 nM.

Turning to `COc1ccc(-c2sc3cc(OC)ccc3c2C(=O)c2ccc(CCCN3CCCCC3)cc2)cc1`, the IC50 is on record as 1000 nM. Against the preceding molecule, the IC50 is about 33-fold higher.

Molecule `O=C(c1ccc(SCCN2CCCCC2)cc1)c1c(-c2ccc(O)cc2)sc2cc(O)ccc12` had an IC50 of 0.9 nM. Compared with the last molecule, the IC50 is about 1100-fold lower.

`O=C(c1ccc(NCCN2CCCCC2)cc1)c1c(-c2ccc(O)cc2)sc2cc(O)ccc12`: the IC50 is listed as 2 nM.

As for `O=C(c1ccc(CCCN2CCCCC2)cc1)c1c(-c2ccc(O)cc2)sc2cc(O)ccc12`, the 50% inhibitory concentration (IC50) was 10 nM. Against the preceding molecule, the IC50 is about 5-fold higher.

The molecule `COc1ccc(-c2sc3cc(OC)ccc3c2C(=O)c2ccc(S(=O)(=O)CCN3CCCCC3)cc2)cc1` gave an IC50 of more than 1000 nM.

With `CN(CCN1CCCCC1)c1ccc(C(=O)c2c(-c3ccc(O)cc3)sc3cc(O)ccc23)cc1`, the IC50 came to 10 nM.

What is called IC50 is the midpoint of a concentration-inhibition curve. Low readings indicate inhibition by little substance, high ones a need for much substance.
